Source: ChEMBL document CHEMBL1909046, “DrugMatrix in vitro pharmacology data”

Key:
[1] = target: Matrix metalloproteinase-9 (Homo sapiens, UniProt P14780); assay: biochemical; type: cell-based;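 also: inhibition of isolated MMP-9 enzyme activity toward a synthetic peptide substrate, from the DrugMatrix protease screening panel; in other assays of this panel Not Active means under 50% inhibition at 10 µM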
[2] = target: Mitogen-activated protein kinase 14 (Homo sapiens, UniProt Q16539); design: species or system Escherichia coli;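 also: inhibition of p38alpha enzyme activity in a biochemical kinase assay, with myelin basic protein serving as substrate; in other assays of this panel Not Active means under 50% inhibition at 10 µM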
[3] = target: Epidermal growth factor receptor (Homo sapiens, UniProt P00533); assay: DRUGMATRIX: Protein Tyrosine Kinase, EGF Receptor enzyme inhibition (substrate: Poly(Glu:Tyr)); type: cell-based, Insect cells; conditions: Not Active = under 50% inhibition at 10 µM
Cytochrome P450 1A2 = target: T1, Cytochrome P450 1A2 (Homo sapiens, UniProt P05177); conditions: bti-tn-5b1-4; also: in other assays of this panel Not Active means under 50% inhibition at 10 µM
T1 sequence (P05177 whole entry): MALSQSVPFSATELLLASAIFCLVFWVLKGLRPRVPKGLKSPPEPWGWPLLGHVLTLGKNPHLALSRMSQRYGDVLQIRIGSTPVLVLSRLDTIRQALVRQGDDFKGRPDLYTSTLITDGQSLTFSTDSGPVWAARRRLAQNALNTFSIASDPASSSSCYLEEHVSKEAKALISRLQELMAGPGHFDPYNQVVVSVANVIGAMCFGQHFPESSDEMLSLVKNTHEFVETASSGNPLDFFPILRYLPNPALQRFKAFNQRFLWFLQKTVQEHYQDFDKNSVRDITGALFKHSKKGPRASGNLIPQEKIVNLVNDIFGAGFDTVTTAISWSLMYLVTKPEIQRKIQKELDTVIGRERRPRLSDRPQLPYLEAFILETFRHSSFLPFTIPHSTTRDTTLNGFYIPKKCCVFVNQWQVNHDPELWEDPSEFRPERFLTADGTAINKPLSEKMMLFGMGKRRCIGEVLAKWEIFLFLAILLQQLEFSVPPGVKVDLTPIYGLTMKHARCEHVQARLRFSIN

Cytochrome P450 2C9 = Cytochrome P450 2C9 (Homo sapiens, UniProt P11712); conditions: bti-tn-5b1-4; also: in other assays of this panel Not Active means under 50% inhibition at 10 µM
Nitric oxide synthase 1 = Nitric oxide synthase 1 (Rattus norvegicus, UniProt P29476); type: tissue-based, Cerebellum; also: in other assays of this panel Not Active means under 50% inhibition at 10 µM
Chain of Nitric oxide synthase 1 (P29476 whole entry): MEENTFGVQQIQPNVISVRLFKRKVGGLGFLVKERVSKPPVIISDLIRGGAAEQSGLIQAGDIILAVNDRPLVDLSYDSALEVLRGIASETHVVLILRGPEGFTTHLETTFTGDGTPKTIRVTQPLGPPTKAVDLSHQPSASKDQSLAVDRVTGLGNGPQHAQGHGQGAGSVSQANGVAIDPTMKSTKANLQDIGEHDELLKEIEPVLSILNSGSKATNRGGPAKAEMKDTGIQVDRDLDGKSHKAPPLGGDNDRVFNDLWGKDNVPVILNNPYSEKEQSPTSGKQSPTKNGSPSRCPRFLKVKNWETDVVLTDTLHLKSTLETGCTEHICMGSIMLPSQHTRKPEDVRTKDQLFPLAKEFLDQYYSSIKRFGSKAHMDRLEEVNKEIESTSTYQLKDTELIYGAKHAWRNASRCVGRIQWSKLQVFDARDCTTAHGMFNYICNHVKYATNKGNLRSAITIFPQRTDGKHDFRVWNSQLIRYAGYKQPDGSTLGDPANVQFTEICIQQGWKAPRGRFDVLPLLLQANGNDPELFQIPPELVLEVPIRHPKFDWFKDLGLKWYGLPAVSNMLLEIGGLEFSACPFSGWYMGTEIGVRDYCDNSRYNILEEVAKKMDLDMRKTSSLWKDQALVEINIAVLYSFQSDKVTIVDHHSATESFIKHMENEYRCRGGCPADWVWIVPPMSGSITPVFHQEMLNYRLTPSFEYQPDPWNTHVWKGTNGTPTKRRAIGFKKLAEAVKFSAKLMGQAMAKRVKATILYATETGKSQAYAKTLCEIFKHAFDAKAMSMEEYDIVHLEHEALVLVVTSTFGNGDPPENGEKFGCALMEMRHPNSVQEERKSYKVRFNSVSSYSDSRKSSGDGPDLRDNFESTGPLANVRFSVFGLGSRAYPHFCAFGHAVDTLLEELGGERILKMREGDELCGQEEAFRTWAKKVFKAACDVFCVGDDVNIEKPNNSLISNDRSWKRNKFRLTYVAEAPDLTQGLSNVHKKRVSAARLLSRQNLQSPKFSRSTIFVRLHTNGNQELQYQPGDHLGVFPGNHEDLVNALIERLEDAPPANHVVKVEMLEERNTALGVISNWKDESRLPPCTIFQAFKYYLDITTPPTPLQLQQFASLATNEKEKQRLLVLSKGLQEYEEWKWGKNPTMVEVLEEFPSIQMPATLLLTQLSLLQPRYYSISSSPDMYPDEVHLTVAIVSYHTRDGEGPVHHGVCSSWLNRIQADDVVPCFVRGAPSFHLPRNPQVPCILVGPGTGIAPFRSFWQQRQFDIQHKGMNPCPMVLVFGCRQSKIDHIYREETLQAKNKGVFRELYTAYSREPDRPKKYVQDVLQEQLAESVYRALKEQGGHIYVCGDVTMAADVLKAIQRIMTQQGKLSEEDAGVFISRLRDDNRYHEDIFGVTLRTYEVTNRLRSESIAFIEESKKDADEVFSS

Chain of Cytochrome P450 2C9 (P11712 whole entry): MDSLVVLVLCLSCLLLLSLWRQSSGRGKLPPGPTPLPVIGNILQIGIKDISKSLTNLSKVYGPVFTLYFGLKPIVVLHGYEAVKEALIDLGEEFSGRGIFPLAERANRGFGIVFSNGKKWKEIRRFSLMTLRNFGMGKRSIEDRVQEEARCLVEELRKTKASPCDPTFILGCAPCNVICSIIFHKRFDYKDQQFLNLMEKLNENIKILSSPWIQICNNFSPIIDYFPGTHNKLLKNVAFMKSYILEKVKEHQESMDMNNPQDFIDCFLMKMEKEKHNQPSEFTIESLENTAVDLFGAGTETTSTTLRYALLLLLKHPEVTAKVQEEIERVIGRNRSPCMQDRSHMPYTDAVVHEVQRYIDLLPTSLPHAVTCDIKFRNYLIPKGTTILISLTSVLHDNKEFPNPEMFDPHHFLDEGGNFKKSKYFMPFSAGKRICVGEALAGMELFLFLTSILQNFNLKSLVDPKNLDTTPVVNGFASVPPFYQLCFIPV
Chain of Matrix metalloproteinase-9 (P14780 whole entry): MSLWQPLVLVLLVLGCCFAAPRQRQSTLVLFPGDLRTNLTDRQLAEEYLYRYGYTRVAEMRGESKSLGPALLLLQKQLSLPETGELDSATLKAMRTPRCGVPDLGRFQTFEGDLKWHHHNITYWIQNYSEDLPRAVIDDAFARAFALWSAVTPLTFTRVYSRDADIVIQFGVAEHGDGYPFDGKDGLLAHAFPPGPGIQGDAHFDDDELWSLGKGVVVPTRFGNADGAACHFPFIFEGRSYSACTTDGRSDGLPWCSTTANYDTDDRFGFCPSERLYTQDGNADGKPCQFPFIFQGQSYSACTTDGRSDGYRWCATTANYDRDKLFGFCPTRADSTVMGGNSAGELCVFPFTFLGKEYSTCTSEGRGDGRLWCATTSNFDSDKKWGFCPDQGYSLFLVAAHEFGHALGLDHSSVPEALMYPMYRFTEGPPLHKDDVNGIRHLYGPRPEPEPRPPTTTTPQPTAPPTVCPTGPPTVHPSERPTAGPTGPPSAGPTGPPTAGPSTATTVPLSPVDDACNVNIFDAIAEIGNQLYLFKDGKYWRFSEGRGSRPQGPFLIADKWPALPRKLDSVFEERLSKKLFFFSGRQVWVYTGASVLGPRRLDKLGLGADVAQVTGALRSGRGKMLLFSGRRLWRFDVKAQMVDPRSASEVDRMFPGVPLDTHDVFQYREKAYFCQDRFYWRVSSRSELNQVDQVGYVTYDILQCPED
Chain of Mitogen-activated protein kinase 14 (Q16539 whole entry): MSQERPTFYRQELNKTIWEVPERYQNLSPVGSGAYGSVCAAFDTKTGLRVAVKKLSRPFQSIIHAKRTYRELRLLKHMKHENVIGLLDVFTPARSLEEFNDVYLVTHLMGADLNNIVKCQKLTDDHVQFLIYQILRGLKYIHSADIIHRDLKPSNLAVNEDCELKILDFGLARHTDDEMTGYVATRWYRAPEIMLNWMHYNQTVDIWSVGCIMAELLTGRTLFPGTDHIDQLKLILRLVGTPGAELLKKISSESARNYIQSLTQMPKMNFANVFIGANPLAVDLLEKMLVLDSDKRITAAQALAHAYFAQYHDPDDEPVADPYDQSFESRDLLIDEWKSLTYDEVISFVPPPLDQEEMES

| Compound | IC50 [1] | IC50 [2] | IC50 ([3]; insect cells) | IC50 (Cytochrome P450 1A2) | Ki (Cytochrome P450 1A2) | IC50 (Cytochrome P450 2C9) | Ki (Cytochrome P450 2C9) | IC50 (Nitric oxide synthase 1) | Ki [1] | Ki [2] | Ki ([3]; insect cells) | Ki (Nitric oxide synthase 1) | IC50 ([3]; read-out: IC50) [nM] | IC50 ([2]; read-out: IC50) [nM] |
| --- | --- | --- | --- | --- | --- | --- | --- | --- | --- | --- | --- | --- | --- | --- |
| Cn1c(=O)c2c(ncn2CC(O)CO)n(C)c1=O (stereo not drawn) [DYPHYLLINE] | Not Active | Not Active | Not Active | Not Active | Not Active | Not Active | Not Active | Not Active | – | – | – | – | – | – |
| O=C(O)c1cccnc1Nc1cccc(C(F)(F)F)c1 [NIFLUMIC ACID] | Not Active | Not Active | Not Active | Not Active | Not Active | Not Active | Not Active | Not Active | – | – | – | – | – | – |
| CC(C)c1cccc(C(C)C)c1O [PROPOFOL] | Not Active | Not Active | Not Active | – | – | – | – | Not Active | – | – | – | – | – | – |
| COC(=O)Nc1nc2ccc(C(=O)c3cccs3)cc2[nH]1 [NOCODAZOLE] | Not Active | Not Active | Not Active | Not Active | Not Active | Not Active | Not Active | Not Active | – | – | – | – | – | – |
| N=C(N)NC(=O)Cc1c(Cl)cccc1Cl [GUANFACINE] | Not Active | Not Active | Not Active | Not Active | Not Active | Not Active | Not Active | Not Active | – | – | – | – | – | – |
| CC(C)NCC(O)COc1cccc2[nH]ccc12 (stereo not drawn) [PINDOLOL] | Not Active | Not Active | Not Active | – | – | – | – | Not Active | – | – | – | – | – | – |
| CC(=O)[C@@]1(O)CC[C@H]2[C@@H]3CCC4=CC(=O)CC[C@]4(C)[C@H]3CC[C@@]21C [HYDROXYPROGESTERONE] | Not Active | Not Active | Not Active | – | – | – | – | Not Active | – | – | – | – | – | – |
| CC(=O)O[C@H]1C(=O)[C@@]2(C)[C@H]([C@H](OC(=O)c3ccccc3)[C@]3(O)C[C@H](OC(=O)[C@H](O)[C@@H](NC(=O)c4ccccc4)c4ccccc4)C(C)=C1C3(C)C)[C@]1(OC(C)=O)CO[C@@H]1C[C@@H]2O [PACLITAXEL] | Not Active | Not Active | Not Active | Not Active | Not Active | Not Active | Not Active | Not Active | – | – | – | – | – | – |
| CCCOc1ccc(C(=O)OCCN(CC)CC)cc1N [PROPARACAINE] | Not Active | Not Active | Not Active | Not Active | Not Active | Not Active | Not Active | Not Active | – | – | – | – | – | – |
| O=C(N/N=C/c1ccc([N+](=O)[O-])o1)c1cc([N+](=O)[O-])cc([N+](=O)[O-])c1O [NIFURSOL] | Not Active | Not Active | Not Active | Not Active | Not Active | – | – | Not Active | – | – | – | – | – | – |
| CC(=O)Oc1ccc(C(c2ccc(OC(C)=O)cc2)c2ccccn2)cc1 [BISACODYL] | Not Active | Not Active | Not Active | Not Active | Not Active | – | – | Not Active | – | – | – | – | – | – |
| CN(C)[C@@H]1C(O)=C(C(N)=O)C(=O)[C@@]2(O)C(O)=C3C(=O)c4c(O)ccc(Cl)c4[C@@](C)(O)[C@H]3C[C@@H]12 [CHLORTETRACYCLINE] | Not Active | Not Active | Not Active | Not Active | Not Active | Not Active | Not Active | Not Active | – | – | – | – | – | – |
| Nc1ccn([C@@H]2O[C@H](CO)[C@@H](O)[C@@H]2O)c(=O)n1 [CYTARABINE] | Not Active | Not Active | Not Active | Not Active | Not Active | Not Active | Not Active | Not Active | – | – | – | – | – | – |
| CCC1(CCC(C)C)C(=O)NC(=O)NC1=O [AMOBARBITAL] | Not Active | Not Active | Not Active | Not Active | Not Active | Not Active | Not Active | Not Active | – | – | – | – | – | – |
| AURANOFIN | Not Active | Not Active | Not Active | Not Active | Not Active | Not Active | Not Active | Not Active | Not Active | Not Active | Not Active | Not Active | – | – |
| O=C/C=C/c1ccccc1 | Not Active | Not Active | Not Active | Not Active | Not Active | Not Active | Not Active | Not Active | – | – | – | – | – | – |
| C=CCc1ccc(O)c(OC)c1 [EUGENOL] | Not Active | Not Active | Not Active | Not Active | Not Active | Not Active | Not Active | Not Active | – | – | – | – | – | – |
| COC1=C(OC)C(=O)C(CCCCCCCCCCO)=C(C)C1=O [IDEBENONE] | Not Active | Not Active | Not Active | Not Active | Not Active | – | – | Not Active | – | – | – | – | – | – |

| Compound | IC50 [1] | IC50 [2] | IC50 ([3]; insect cells) | IC50 (Cytochrome P450 1A2) | Ki (Cytochrome P450 1A2) | IC50 (Cytochrome P450 2C9) | Ki (Cytochrome P450 2C9) | IC50 (Nitric oxide synthase 1) | Ki [1] | Ki [2] | Ki ([3]; insect cells) | Ki (Nitric oxide synthase 1) | IC50 ([3]; read-out: IC50) [nM] | IC50 ([2]; read-out: IC50) [nM] |
| --- | --- | --- | --- | --- | --- | --- | --- | --- | --- | --- | --- | --- | --- | --- |
| Oc1cccc(O)c1O [PYROGALLOL] | Not Active | Not Active | – | Not Active | Not Active | Not Active | Not Active | Not Active | – | – | – | – | 1230 | – |
| C[C@]12C=CC(=O)C=C1CC[C@@H]1[C@@H]2[C@@H](O)C[C@@]2(C)[C@H]1CC[C@]2(O)C(=O)CO [PREDNISOLONE] | Not Active | Not Active | Not Active | Not Active | Not Active | Not Active | Not Active | Not Active | – | – | – | – | – | – |
| COc1cc([C@@H]2c3cc4c(cc3[C@@H](O[C@@H]3O[C@@H]5CO[C@@H](C)O[C@H]5[C@H](O)[C@H]3O)[C@H]3COC(=O)[C@H]23)OCO4)cc(OC)c1O [ETOPOSIDE] | Not Active | Not Active | Not Active | – | – | – | – | Not Active | – | – | – | – | – | – |
| CC(C)=CCC/C(C)=C/CO [GERANIOL] | Not Active | Not Active | Not Active | – | – | – | – | Not Active | – | – | – | – | – | – |
| CCCNCC(O)COc1ccccc1C(=O)CCc1ccccc1 (stereo not drawn) [PROPAFENONE] | Not Active | Not Active | Not Active | – | – | – | – | Not Active | – | – | – | – | – | – |
| O=c1cc(N2CCOCC2)oc2c(-c3ccccc3)cccc12 [LY-294002] | Not Active | Not Active | – | – | – | Not Active | Not Active | Not Active | – | – | – | – | – | – |
| NCCCC(O)(P(=O)(O)O)P(=O)(O)O [ALENDRONIC ACID] | Not Active | Not Active | Not Active | – | – | – | – | Not Active | – | – | – | – | – | – |
| CC(C)(C)NC(=O)[C@H]1CC[C@H]2[C@@H]3CC[C@H]4NC(=O)C=C[C@]4(C)[C@H]3CC[C@]12C [FINASTERIDE] | Not Active | Not Active | Not Active | Not Active | Not Active | – | – | Not Active | – | – | – | – | – | – |
| Cn1c(=O)c2[nH]cnc2n(C)c1=O.Cn1c(=O)c2[nH]cnc2n(C)c1=O.NCCN [AMINOPHYLLINE] | Not Active | Not Active | Not Active | Not Active | Not Active | – | – | Not Active | – | – | – | – | – | – |
| COc1ccc2c3c1O[C@H]1C[C@@H](O)C=C[C@@]31CCN(C)C2 [GALANTAMINE] | Not Active | Not Active | Not Active | – | – | – | – | Not Active | – | – | – | – | – | – |
| C[C@@H]1O[C@@H](O[C@@H]2C=C3CC[C@@H]4[C@H](CC[C@]5(C)[C@@H](c6ccc(=O)oc6)CC[C@]45O)[C@@]3(C)CC2)[C@H](O)[C@H](O)[C@H]1O [PROSCILLARIDIN] | Not Active | Not Active | Not Active | Not Active | Not Active | – | – | Not Active | – | – | – | – | – | – |
| C[C@@H]1C[C@H]2[C@@H]3CCC4=CC(=O)C=C[C@]4(C)[C@@]3(F)[C@@H](O)C[C@]2(C)[C@@]1(O)C(=O)CO [DEXAMETHASONE] | Not Active | Not Active | Not Active | Not Active | Not Active | – | – | Not Active | – | – | – | – | – | – |
| O=C(c1ccccc1C(F)(F)F)N1CCC(Cc2ccccc2)CC1 | Not Active | – | Not Active | Not Active | Not Active | – | – | Not Active | – | – | – | – | – | 715 |
| CC1(C)S[C@@H]2[C@H](NC(=O)[C@H](N)c3ccccc3)C(=O)N2[C@H]1C(=O)O [AMPICILLIN] | Not Active | Not Active | Not Active | Not Active | Not Active | – | – | Not Active | – | – | – | – | – | – |
| CN1[C@@H]2CC[C@H]1C[C@@H](OC(=O)C(CO)c1ccccc1)C2 (stereo partly drawn) [ATROPINE] | Not Active | Not Active | Not Active | – | – | – | – | Not Active | – | – | – | – | – | – |
| Oc1c(Cl)cc(Cl)c(Cl)c1Cc1c(O)c(Cl)cc(Cl)c1Cl [HEXACHLOROPHENE] | Not Active | – | – | – | – | Not Active | Not Active | Not Active | – | – | – | – | 749 | 87.6 |
| CCn1cc(C(=O)O)c(=O)c2cnc(N3CCCC3)nc21 [PIROMIDIC ACID] | Not Active | Not Active | Not Active | – | – | Not Active | Not Active | Not Active | – | – | – | – | – | – |
